What was measured:
Format in all cases: cell-based, human
[1] = system: endocrine progenitor cells; assay: Stage 5 differentiation into endocrine cells, immunocytochemistry; conditions: for proportion of PDX1-positive/CP-negative cells / proportion of CP single-positive cells: end of stage 5; for proportion of CP single-positive cells: added to basal medium with exendin-4 and nicotinamide
Procedure: (§1) To this medium were added 50 ng/ml exendin-4 (Ex-4; Cell Sciences), 10 mM nicotinamide (NA; Sigma-Aldrich), and/or 100 μM 3-isobutyl-1-methylxanthine (IBMX; phosphodiesterase inhibitor; Wako), and/or 10 μM forskolin (FRKL; adenylate cyclase activator; Wako). The media were changed every two days.

[2] = system: endocrine progenitor cells; assay: Intracellular C-peptide content of cells differentiated at stage 5 (ELISA); conditions: differentiated cells at the end of stage 5
Procedure: as §1
The differentiated cells at the end of stage 5 were initially incubated at 37° C. for 30 min with DMEM (Life Technologies) containing minimal essential medium, 2.5 mM glucose and 1% B27 Supplement Xeno-Free CTS. This initial incubation was regarded as washing. Subsequently, the medium was discarded and then the cells were incubated with DMEM (100 μl per well) containing 2.5 mM glucose at 37° for 1 hr. After collecting the supernatant, the same cells were further cultured for 1 hr in 20 mM glucose-containing DMEM or 2.5 mM glucose-containing DMEM supplemented with various stimulants, e.g., 2 μM (−)-Bay K8644 (Sigma-Aldrich), 100 μM tolbutamide (Wako), 250 μM carbachol (Sigma-Aldrich), 0.5 mM IBMX or 30 mM potassium chloride (KCl) (Wako). […] Intracellular C-peptide and protein levels were quantitatively determined. C-peptide level was measured using a human C-peptide ELISA kit (ALPCO Diagnostics) according to the manufacturer's instructions. The total protein in cell lysate was quantitatively determined using a Bio-Rad reagent kit (Bio-Rad). […]

[3] = system: differentiated cells at the end of stage 5; assay: C-peptide secretion in response to glucose and insulin secretagogues (ELISA); conditions: 1 hr, versus 2.5 mM glucose without secretagogues; 30 mM KCl, 100 μM tolbutamide, 2 μM Bay K8644, 0.5 mM IBMX, 250 μM carbachol
Procedure: The differentiated cells at the end of stage 5 were initially incubated at 37° C. for 30 min with DMEM (Life Technologies) containing minimal essential medium, 2.5 mM glucose and 1% B27 Supplement Xeno-Free CTS. This initial incubation was regarded as washing. Subsequently, the medium was discarded and then the cells were incubated with DMEM (100 μl per well) containing 2.5 mM glucose at 37° for 1 hr. After collecting the supernatant, the same cells were further cultured for 1 hr in 20 mM glucose-containing DMEM or 2.5 mM glucose-containing DMEM supplemented with various stimulants, e.g., 2 μM (−)-Bay K8644 (Sigma-Aldrich), 100 μM tolbutamide (Wako), 250 μM carbachol (Sigma-Aldrich), 0.5 mM IBMX or 30 mM potassium chloride (KCl) (Wako). The supernatant was collected again and stored at −20° C. until analysis. Finally, the cells were lysed with 0.01% Triton X-100 in PBS containing 1% protease inhibitor cocktail (Nacalai Tesque). Intracellular C-peptide and protein levels were quantitatively determined. C-peptide level was measured using a human C-peptide ELISA kit (ALPCO Diagnostics) according to the manufacturer's instructions. The total protein in cell lysate was quantitatively determined using a Bio-Rad reagent kit (Bio-Rad). The amount of C-peptide was normalized against the corresponding amount of the total protein.

[4] = system: endocrine progenitor cells; assay: Stage 5 differentiation into endocrine cells, quantitative RT-PCR
Procedure: as §1

PG cells [5] = assay: Stage 3 differentiation into pancreatic progenitor cells, immunocytochemistry
From the text: (§2) The medium was changed every two days.

PG cells [6] = assay: Stage 3 differentiation into pancreatic progenitor cells, quantitative RT-PCR; conditions: higher concentrations of NOGGIN at stage 3, versus Nog 100
From the text: as §2

[7] = 200 ng/ml NOGGIN in stage-3 media
[8] = 200 ng/ml NOGGIN in stage-3 media with RA, KAAD-cyclopamine, SB431542

## C=C[C@@]1(C)CC(=O)[C@]2(O)[C@@]3(C)[C@@H](O)CCC(C)(C)[C@@H]3[C@H](O)[C@H](OC(C)=O)[C@@]2(C)O1 [FRKL, forskolin]
[1]
  proportion of PDX1-positive/CP-negative cells: approximately 27%
  proportion of CP single-positive cells: 5.6-6.4%
[2]
  intracellular C-peptide contents: approximately 62 ng/mg protein

## C[N+](C)(C)CCOC(N)=O [carbachol]
[3]
  increase of C-peptide secretion: approximately 7.0 fold

## CC(C)Cn1c(=O)n(C)c(=O)c2[nH]cnc21 [IBMX, 3-isobutyl-1-methylxanthine]
[1]
  proportion of PDX1-positive/CP-negative cells: approximately 22%
  proportion of CP single-positive cells: 6.5-6.7%
[4]; IBMX-induced cells versus FRKL-induced cells
  expression levels of β-cell specific genes: relatively higher
[4]; added to basal medium (DMEM/F12, 1% B27, exendin-4 and nicotinamide) at stage 5, versus DMSO
  INS expression: significantly upregulated
[4]; end of stage 5, versus DMSO-induced cells
  expression levels of β-cell maturity genes (PDX1, NKX6.1, MAF-A, ISL-1, UCN3, GCK, IAPP, SLC30A8): remarkably higher
[2]
  intracellular C-peptide contents: approximately 66 ng/mg protein
[3]
  increase of C-peptide secretion: approximately 4.9 fold

## [Cl-].[K+] [KCl, potassium chloride]
[3]
  increase of C-peptide secretion: approximately 8.3 fold

## COC(=O)C1=C(C)NC(C)=C([N+](=O)[O-])C1c1ccccc1C(F)(F)F (single isomer, unassigned; (-)) [(−) BAY K8644]
[3]
  increase of C-peptide secretion: approximately 4.9 fold

## CCCCNC(=O)NS(=O)(=O)c1ccc(C)cc1 [tolbutamide]
[3]
  increase of C-peptide secretion: approximately 3.0 fold

B1: NOGGIN: recombinant human NOGGIN, BMP signaling inhibitor (R&D Systems) (protein, UniProt Q13253 28-232, looked up)
Noggin: QHYLHIRPAPSDNLPLVDLIEHPDPIFDPKEKDLNETLLRSLLGGHYDPGFMATSPPEDRPGGGGGAAGGAEDLAELDQLLRQRPSGAMPSEIKGLEFSEGLAQGKKQRLSKKLRRKLQMWLWSQTFCPVLYAWNDLGSRFWPRYVKVGSCFSKRSCSVPEGMVCKPSKSVHLTVLRWRCQRRGGQRCGWIPIQYPIISECKCSC
PG cells [5]; 100 ng/ml NOGGIN at stage 3
  AFP-positive hepatic cells and CDX2-positive intestinal progenitor cells appearing: considerable proportion
PG cells [5]; [7]
  AFP-positive cells in the total DAPI-positive cells: 4%
  CDX2-positive cells in the total DAPI-positive cells: 8%
PG cells [5]; [8]
  PDX1-positive cells co-expressing HNF-6: about 62%
  PDX1-positive cells co-expressing SOX9: about 59%
PG cells [5]; 200-300 ng/ml NOGGIN at stage 3, versus 100 ng/ml
  numbers of AFP-positive hepatic cells and CDX2-positive intestinal progenitor cells: remarkably reduced
PG cells [6]
  expression level of early-stage pancreatic dorsal bud gene HLXB9: remarkably upregulated
  expression levels of PDX-1 and posterior foregut genes HNF6 and NKX6.1: remarkably upregulated
  gene expression levels of CDX2 and AFP: remarkably reduced
[1]; NOGGIN at 200 ng/ml compared to 100 ng/ml at stages 3 and 4
  proportion of EC cells: higher proportion

— US10457916B2, “Method for inducing differentiation of insulin-producing cells” (TOKYO INSTITUTE OF TECHNOLOGY, priority 2014, dated 2019)
